This is an account of results in patent publication US20100304975A1, “PROCESS FOR […] RESISTANCE TO AN ABIOTIC STRESS” (ELICITYL, priority 2007, published 2010).

Common to all, as to format: in vivo
One experiment concerns Cabernet-Sauvignon. Put plainly: Frost-resistance of vine plants after foliar spraying, Cabernet-Sauvignon. The conditions noted are these: for Gain: Cabernet Sauvignon, cold stress -3 to -5° C. 12 hours after application. The protocol: (§1) Plants originating from different vine varieties: the Chardonnay, Pinot noir and Cabernet-Sauvignon varieties are used. Each sample, composed of 5 to 21 plants, is treated by foliar spraying at different vegetative stages on the BBCH scale with a mixture containing the xyloglucan elicitor, HEPTAMALOXYLOGLUCAN or XFGol in solution at variable doses; the spraying of 2.5 ml of solution per plant is carried out using a sprayer (deviation of +/−1%).
(§2) 12 hours after the application of the elicitor, the plants were exposed to cold stress at −3 to −5° C. After exposure to the cold, the plants are placed in a climatic chamber at 20° C. with a 12-hour day/night alternation. The appearance of the leaves is observed 24 hours and 72 hours after removal from the cold. The effects of the cold are evaluated by observing the foliar necroses induced by frost and the plants are kept for several months in order to monitor their subsequent development.
(§3) The results are expressed by the protection index IP: IP (%)=100−P; P, being the proportion of necrotized leaves.

The subject of the next experiment is kiwi plants. Put plainly: Frost-resistance of kiwi plants after foliar spraying (death of buds). Conditions: for Gain % / IP (protection index of kiwi buds; IP=100-P, P=proportion of dead buds): elicitor 500 nM. The procedure: The elicitor which is used is HEPTAMALOXYLOGLUCAN (or XFGol).
Before the cold stress, plants are treated or not by foliar spraying with a spray mixture containing HEPTAMALOXYLOGLUCAN.
After application of the spraying mixture, the plants were exposed to cold stress. In order to reproduce artificial conditions of cold stress, plants were placed in a climatic chamber.
The effects of cold are evaluated by observing the death of buds due to frost.
The results are expressed by the protection index IP: IP (%)=100-P; P, being the proportion of dead buds.
The results are also expressed in gain:
Increase of protection of kiwi plants elicited by the product PEL101GV (500 nM). IP corresponds to the protection index of kiwi buds, 28 days after the cold stress at −2,8° C. or −4° C. (IP=100−P; P=proportion of dead buds)

The next experiment relates to Pinot noir. The experiment is described as follows: Frost-resistance of vine plants after foliar spraying, Pinot noir. Conditions: for Gain: cold stress -3 to -5° C. 12 hours after application. The procedure:
as §1, §2, §3

In the next experiment the test system is Chardonnay. The experiment is described as follows: Frost-resistance of vine plants after foliar spraying, Chardonnay. The conditions noted are these: for Gain: cold stress -3 to -5° C. 12 hours after application. The protocol: as §1, §2, §3
Setting [1] is: 28 days after the cold stress at -2.8° C.
Where [2] appears, read: 28 days after the cold stress at -4° C.
[3] abbreviates: spray mixture containing 5 nM, compared within a range of 0.5 nM to 5000 nM.

Turning to `CC1OC(OC2C(OC3C(OCC4OC(OC(C(O)CO)C(O)C(O)CO)C(O)C(O)C4OC4OC(COC5OCC(O)C(O)C5O)C(O)C(O)C4O)OCC(O)C3O)OC(CO)C(O)C2O)C(O)C(O)C1O` (stereo not drawn) [HEPTAMALOXYLOGLUCAN], the Gain stood at 46% in the experiment on Cabernet-Sauvignon (elicitor 5 nM foliar spray); 35% with Cabernet-Sauvignon (elicitor 50 nM foliar spray); 76% with Cabernet-Sauvignon (elicitor 500 nM foliar spray); 0% in the experiment with Pinot noir (elicitor 0.5 nM foliar spray); 34% in the experiment with Pinot noir (elicitor 5 nM foliar spray); 0% in the experiment on Pinot noir (elicitor 50 nM foliar spray). In addition, the Gain in the experiment on Pinot noir (elicitor 500 nM foliar spray) is 27%; in the experiment on Pinot noir (elicitor 5000 nM foliar spray), 25%; in the experiment with Chardonnay (elicitor 0.5 nM foliar spray), 28%; with Chardonnay (elicitor 5 nM foliar spray) it was 42%; in the experiment with Chardonnay (elicitor 50 nM foliar spray) it was 9%; in the experiment on Chardonnay (elicitor 500 nM foliar spray), 0%. The same compound gave a Gain in the experiment with Chardonnay (elicitor 5000 nM foliar spray) of 28%. For the same compound, the protection against frost result in the experiment on Cabernet-Sauvignon (Cabernet sauvignon, spray mixture containing 500 nM, compared with the other doses) is “more efficient than the other doses”; in the experiment on Pinot noir (setting [3]) it was “more efficient than the other doses”; in the experiment on Chardonnay (setting [3]), “more efficient than the other doses”. For the same compound, the Gain % was 27% with kiwi plants (setting [1]) and 87% in the experiment with kiwi plants (setting [2]). In addition, the “IP (protection index of kiwi buds; IP=100-P, P=proportion of dead buds)” value with kiwi plants (setting [1]) stood at 81%; in the experiment with kiwi plants (setting [2]), 56%. Also, in the experiment with kiwi plants (treated versus control), the “protection of the kiwi buds against frost” value is reported as “better protection”.
